Values quoted from earlier work as cited in patent publication US12357667B2, “Nutraceutical formulations to prevent, treat, and inhibit excess cytokines, SARS-CoV-2 spike proteins, and mRNA vaccine spike proteins” (priority 2021, dated 2025).

Experiments:
[1] = tested on: variant spikes from the SARS-CoV-2 alpha and delta strains
[2] = tested on: SARS-CoV-2 alpha variant B.1.1.7 and the beta variant B.1.351; conditions: alpha variant B.1.1.7 and beta variant B.1.351

SMILES	activity of variant spikes [1]	effectiveness against variants [2]
CC(=O)N[C@@H](CS)C(=O)O [N-acetylcysteine, reference compound]	suppressed	
CCCCCc1cc(O)c(C/C=C(\C)CCC=C(C)C)c(O)c1C(=O)O [cannabigerolic acid]		equally effective
C=C(C)[C@@H]1CCC(C)=C[C@H]1c1c(O)cc(CCCCC)c(C(=O)O)c1O [cannabidiolic acid]		equally effective
N[C@@H](CCC(=O)N[C@@H](CS)C(=O)NCC(=O)O)C(=O)O [glutathione, γ-glutamyl cysteinyl glycine]	suppressed	
